Columns and labels:
[1] = system: BALB/c mice; experiment: DSS-induced acute ulcerative colitis in mice (Example 6); format: in vivo; conditions: for survival rate: 8 mice, model group 75%
Experimental: From Day 0 to Day 14 of the experiment, the mice were weighed daily and their blood and stool conditions were observed, scored and recorded according to the following table (Table 1). Random grouping was performed on Day 1, and modeling was conducted from Day 1 to Day 7. All groups except the Control group were given 3.5% DSS water daily. Re-grouping was performed on Day 8. The Control group and Model group received no medication and were given tap water; the other groups were administered intragastrically with 1 mg/kg, 3 mg/kg, 9 mg/kg, and SASP (Sulfasalazine or Salicylazosulfapyridine) 500 mg/kg, respectively. On Day 15, blood and colon samples were collected, colon length was measured, and a 1-2 cm segment of the colon was fixed with formaldehyde.
(§1) • BALB/c mice, male, 20-22 g • Dextran sulfate sodium MW: 36,000-50,000 (DSS) • 30 1 mg/kg, 3 mg/kg, 9 mg/kg, SASP (500 mg/kg) indicators were observed.
(§2) (1) Clinical Symptom Score: The mice were weighed daily and their blood and stool were observed during the experiment for DAI scoring, which was graded and recorded according to the following table (Table 1).
(§3) (2) After the experiment, the colon was removed, its length measured and weight recorded. The colon-to-body weight index (colon weight/body weight × 100%) and colon swelling rate (colon weight/length × 100%) were calculated.
(§4) Colonic tissue approximately 1 cm from the anal margin (0.5 cm) and ileocecal region tissue were collected for histopathological examination. After H&E staining, the tissues were scored under single-blind conditions to evaluate the level of distal colon inflammation and tissue damage; scoring was performed according to the Ameho criteria and calculated as follows: • Score 0: No abnormal findings in the texture. • Score 1: Mild inflammatory infiltration of the mucosa and/or submucosa (mixed with neutrophils), submucosal edema, punctate mucosal erosion, accompanied by capillary proliferation. The muscularis mucosae is intact. • Score 2: Changes of Score 1 account for more than 50%. • Score 3: Obvious inflammatory infiltration and edema (neutrophils are often predominant); ulcers usually penetrate the muscularis mucosae to reach the submucosa. There is little inflammatory cell infiltration in the muscularis propria and no muscle necrosis. • Score 4: Changes of Score 3 account for more than 50%. • Score 5: Large confluent ulcers with coagulative necrosis, massive neutrophil infiltration at the margins and few monocytes. Necrotic tissue penetrates the muscularis propria. • Score 6: Changes of Score 5 account for more than 50% of the specimen.
The fence function of Occludin separates the apical and basolateral sides of the epithelial cell plasma membrane, restricting the free flow of lipids on the cell membrane, facilitating the formation of cell polarity, maintaining the impermeability and rigidity of the intestinal mucosa, and preventing the entry of pathogenic microorganisms. The barrier function of Occludin can regulate the transport of small molecules and maintain tissue homeostasis. […]

[2] = system: BALB/c mice; experiment: DSS-induced chronic ulcerative colitis in mice (Example 6); format: in vivo
Text: BALB/c mice were acclimatized for 7 days before the experiment. From Day 7 to Day 50 of the experiment, the mice were weighed daily and their blood and stool conditions were observed, scored and recorded according to the following table (Table 1). After random grouping, all groups except the Control group were given free access to 2-3% DSS solution for modeling from Day 7 to Day 14, while the Control group received normal drinking water during the same period. One cycle lasted 14 days and was repeated 3 times. Re-grouping was performed at the start of the final cycle to initiate drug administration. The Control group and Model group received no drug but the same solvent. The other groups were intragastrically administered 1 mg/kg, 3 mg/kg, 9 mg/kg, and SASP 500 mg/kg respectively. On Day 45, blood and colon samples were collected, colon length was measured, and a 1-2 cm colon segment was fixed with formaldehyde.
as §1, §2, §3, §4
The fence function of Occludin separates the apical and basolateral sides of the epithelial cell plasma membrane, restricting the free flow of lipids on the cell membrane, facilitating the formation of cell polarity, maintaining the impermeability and rigidity of the intestinal mucosa, and preventing the entry of pathogenic microorganisms. The barrier function of Occludin can regulate the transport of small molecules and maintain tissue homeostasis. The expression and distribution of related proteins are detected by immunohistochemistry.
During modeling, the body weight of mice in the control group increased steadily. In the model group, during the first modeling period, mice were given 3% DSS drinking water ad libitum for 7 days, followed by tap water ad libitum for 7 days. On Day 4 of modeling, the body weight of mice began to decrease generally, reaching the lowest point on Day 8, and then started to rise. During the second modeling period, mice were given 2% DSS drinking water ad libitum for 7 days, followed by tap water ad libitum for 7 days. […]

CCc1cc(/C(C)=N/OCc2ccc(-c3ccccc3)c(C)c2)ccc1CN1CC[C@H](C(=O)O)C1 [Compound 30]
survival rate ([1]; 30 1 mg/kg intragastric from Day 8): 87.5%
colon length ([1]; 30 1 mg/kg, p<0.05 vs Model group): significantly inhibited DSS-induced colon shortening
survival rate ([1]; 30 3 mg/kg intragastric from Day 8): 87.5%
colon length ([1]; 30 3 mg/kg, p<0.01 vs Model group): significantly inhibited DSS-induced colon shortening
total DAI scores over 14 days ([1]; 30 3 mg/kg, vs model group): significantly lower
survival rate ([1]; 30 9 mg/kg intragastric from Day 8): 75%
body weight recovery ([1]; 30 at 3 mg/kg, SASP at 500 mg/kg, vs model group): faster body weight recovery with a greater rebound amplitude
colon pathological changes (H&E staining) ([1]; 30 at 9 mg/kg): obvious inflammatory cell infiltration and reduced goblet cells
daily DAI score ([1]; 30 treatment groups, SASP 500 mg/kg, vs model group): decreased more rapidly
colon pathological changes (H&E staining) ([1]; Compound 30 1 mg/kg): no obvious inflammatory cell infiltration was observed
colon pathological changes (H&E staining) ([1]; Compound 30 3 mg/kg): no obvious inflammatory cell infiltration was observed
Occludin expression in colonic mucosa (immunohistochemistry) ([1]; vs Model group): the expression of Occludin was increased
Occludin protein in colon (Western blotting) ([1]; vs Model group): increase the expression of Occludin
body weight during administration ([2]; 30 1 mg/kg): remained relatively stable during administration
body weight during administration ([2]; 30 3 mg/kg): remained relatively stable during administration
body weight change rate ([2]; 30 3 mg/kg, before and after administration, vs model group): significantly increased
total DAI scores of the administration for 14 days ([2]; 30 3 mg/kg, vs model group): significantly lower
colon pathological changes (H&E staining) ([2]; 30 at 1 mg/kg): no obvious inflammatory cell infiltration was observed
colon pathological changes (H&E staining) ([2]; 30 at 3 mg/kg): no obvious inflammatory cell infiltration was observed
daily DAI score ([2]; 30 treatment group, SASP 500 mg/kg, vs model group): decreased more rapidly
body weight recovery ([2]; 30 treatment groups (1, 3, 9 mg/kg), SASP 500 mg/kg, vs model group): recovered rapidly and increased substantially
colon length ([2]; Compound 30 3 mg/kg, vs Model group): significantly inhibited DSS-induced colon shortening
colon length ([2]; Compound 30 9 mg/kg, vs Model group): significantly inhibited DSS-induced colon shortening
Occludin expression in colonic mucosa (immunohistochemistry) ([2]; vs Model group): the expression of Occludin was increased
